Data set [1] has as its system Bovine viral diarrhea virus 1. The data set is described as follows: Antiviral activity against BVDV NADL in MDBK cells. The class given is functional, organism-based. The following applies: Bovine viral diarrhea virus isolates and strains.
A short description of data set [2]: Cytotoxicity against MDBK cells. The class given is cell-based, Bos taurus. Particulars: cattle.
Data set [3] can be described thus: Selectivity index, CC50 for MDBK cells/EC50 for BVDV NADL. The class given is functional.
Another data set concerns Hepatitis C virus. As to the kind of experiment: Antiviral activity against HCV 1a. The following applies: Hepacivirus hominis; subtype 1a. Type of data set: functional, organism-based.

Active and inactive are the calls of the source. The rule behind the calls is not given here.

What is called EC50 is the concentration at which the effect is half-maximal. As a reminder, the CC50 is the concentration at which the toxic effect on the cells reaches its halfway point. A low value points to greater toxicity to the cells. In data set [1], `COc1cccc(Cn2ccc3nc(-c4ccccc4)nc-3c2)c1` displayed an EC50 of 500 nM. For the same molecule, in data set [2], the CC50 is > 100 µM. Besides, the “Ratio CC50/EC50” value in data set [3] was >200. In the data set on Hepatitis C virus, the outcome was inactive.
The like results for `Clc1cccc(Cn2ccc3nc(-c4ccccc4)nc-3c2)c1` were, in that order, 210 nM, > 100 µM, >476 and “inactive”.
Turning to `N#Cc1ccc(Cn2ccc3nc(-c4ccccc4)nc-3c2)cc1`, a half-maximal effect in data set [1] (EC50) was put at 230 nM. In data set [2], the 50% cytotoxic concentration (CC50) was > 100 µM. In addition, the “Ratio CC50/EC50” value in data set [3] is recorded as >435. In the data set on Hepatitis C virus, the result was inactive.
On to `Fc1cccc(F)c1Cn1ccc2nc(-c3c(F)cccc3F)nc-2c1`, for which, in data set [1], the EC50 is 1500 nM. The CC50 in data set [2] was > 100 µM. Moreover, the “Ratio CC50/EC50” value in data set [3] is on record as >65. The result in the data set on Hepatitis C virus was inactive.
For `c1ccc(CCCCn2ccc3nc(-c4ccccc4)nc-3c2)cc1`, the response in data set [1] was half-maximal at 2100 nM (EC50). The molecule also showed a CC50 in data set [2] of 95 µM. The “Ratio CC50/EC50” value in data set [3] was 45. Besides, the result with Hepatitis C virus was inactive.
`Cc1cccc(Cn2ccc3nc(-c4ccccc4)nc-3c2)c1`: the midpoint of the response in data set [1], the EC50, lay at 600 nM. For the same molecule, the CC50 in data set [2] was > 100 µM. In data set [3], the “Ratio CC50/EC50” value was >167. Also, in the data set on Hepatitis C virus, the outcome was inactive.
In the same order, the values of `Fc1cccc(F)c1-c1nc2ccn(Cc3ccccc3)cc-2n1` are 4000 nM, > 100 µM, >25 and “inactive”.
For `N#Cc1cccc(Cn2ccc3nc(-c4ccccc4)nc-3c2)c1`, the EC50 in data set [1] was 4000 nM. Moreover, the CC50 in data set [2] is > 100 µM. The “Ratio CC50/EC50” value in data set [3] was >25. Moreover, in the data set on Hepatitis C virus, the result was inactive.
As for `CC(c1ccccc1)n1ccc2nc(-c3ccccc3)nc-2c1` (stereo unspecified), in data set [1], the EC50 worked out at 2100 nM. In data set [2], the CC50 is > 100 µM. For the same molecule, in data set [3], the “Ratio CC50/EC50” value was >48. Besides, the result in the data set on Hepatitis C virus was inactive.

Values taken from ChEMBL document CHEMBL1137252, “Substituted 5-benzyl-2-phenyl-5H-imidazo[4,5-c]pyridines: a new class of pestivirus inhibitors” (Bioorg Med Chem Lett, 2006).
